According to patent US12691145B2, “Plasma-treated hydrogel compositions and uses thereof” (UNIVERSITAT POLITÉCNICA DE CATALUNYA, priority 2020, dated 2026):

Assay: Detection of RONS in plasma-treated polymer solutions (strips, AR/HRP reagent, Griess reagent)
Format: physicochemical
Conditions: 200 μL
From the text: In the examples presented here, two kinds of atmospheric plasma jet were used: a commercially available cold atmospheric plasma jet kINPen IND (NEOPLAS Tools, Germany), operating with argon and an atmospheric pressure plasma jet (APPJ) using He as plasma gas in a jet design based on a single electrode. Gas flow was regulated between 1 and 2.5 L/min for kINPen and between 1 and 5 L/min for APPJ by using Ar and He Bronkhorst Mass View flow controllers (BRONKHORST, Netherlands), respectively. All plasma treatments of polymeric solutions for RONS quantification were performed on 200 μL of the polymeric solution in 96-well plates, with a distance between the nozzle and the sample surface between 10 and 20 mm. These plasma treatments were done with ungrounded samples. Both grounded and ungrounded samples can be used to obtain the compositions of the present invention, since the skilled person can set the plasma treatment conditions to obtain the desired RONS concentrations.
Determination of NO2^− concentration in plasma-treated polymer solutions was performed using Griess reagent. The Griess reagent used was obtained by dissolving 1% wt/v of sulphanilamide, 0.1% wt/v of N-(1-naphthyl)ethylenediamine dihydrochloride (NEED) and 5% w/v of phosphoric acid in de-ionized water. 200 μL of Griess reagent were added on 200 μL of sample in 96 well-plates. The plates were incubated for 10 min at room temperature protected from the light. The absorbance was measured at λabs=540 nm using a Synergy HTX Hybrid Multi Mode Microplate Reader (BioTek Instruments, Inc., USA). The [NO2^−] in each sample was determined from the absorbance values by using a calibration curve made from NaNO2 dilutions in the corresponding polymer solutions.
The concentration of hydrogen peroxide was determined by reaction of H2O2 with Amplex Red in presence of HRP enzyme that leads to the creation of resorufin, a fluorescent product. Amplex Red/HRP reagent consists in 100 μM of Amplex Red and 0.25 U/mL HRP in DI water. Since the higher concentration of H2O2 able to be processed properly by this reagent is around 10 μM of H2O2, plasma-treated polymer solutions were diluted 200 times previously to the addition of the reagent. In this case, for hydrogen peroxide detection, 50 μL of the Amplex Red/HRP reagent was added to 200 μL of the 200×-diluted polymer solution sample in a 96-well plate and incubated for 30 min at 37° C. Subsequent fluorescence measurements were performed by means of a Synergy HTX Hybrid Multi Mode Microplate Reader (BioTek Instruments, Inc., USA), with fluorescence filters centred at λex=560/20 nm and λem=590/20 nm as excitation and emission wavelengths, respectively. Concentrations of H2O2 in polymer solution generated by plasma treatment were obtained from the fluorescence values using a calibration curve made from 30% hydrogen peroxide solution in the corresponding polymer solutions.
For certain polymer solutions, interferences may be found between the solution and the reactants, invalidating the measure. In such cases, another method was used to determine the concentration of H2O2, […] in the polymer solutions after plasma treatment: QUANTOFIX® test strips, which were analyzed by means of a reflexion photometer (QUANTOFIX® Relax, of Macherey Nagel). The strips consist of plastic strips to which test paper has been sealed. Nitrite strips are also based in Griess reagent. Peroxide strips also use a redox reaction. The range of detection of the test strips used for H2O2, NO3^− and NO2^− were 1-100 mg/L, 10-500 mg/L and 1-80 mg/L, respectively. The plasma-treated polymer solutions were diluted, if necessary, to be within the measuring range.

- H2O2 (APPJ, treat. time 180 s): 9.2 mg/L
- NO2^− (APPJ, treat. time 180 s): 1.7 mg/L
- H2O2 (APPJ, treat. time 300 s): 16.4 mg/L
- NO2^− (APPJ, treat. time 300 s): 2.7 mg/L
- H2O2 (kINPen, treat. time 180 s): 10.3 mg/L
- NO2^− (kINPen, treat. time 180 s): 2.6 mg/L
- H2O2 (kINPen, treat. time 300 s): 29.3 mg/L
- NO2^− (kINPen, treat. time 300 s): 2.7 mg/L
Substance: Water
